# Laboratory results reported in the SangsterLogP compilation.
# Experiment: method code SF-AS, from DOI: 10.1098/rspb.1976.0034, PMID: 5728
# Details: pH 4.5
row,logD,SMILES
1,1.51,CCCCCNC(=O)c1ccc(S(N)(=O)=O)cc1
2,1.05,CCCCNC(=O)c1ccc(S(N)(=O)=O)cc1
3,2.05,CCCCCCNC(=O)c1ccc(S(N)(=O)=O)cc1
4,0.03,CCNC(=O)c1ccc(S(N)(=O)=O)cc1
5,-0.31,CNC(=O)c1ccc(S(N)(=O)=O)cc1
6,0.51,CCCNC(=O)c1ccc(S(N)(=O)=O)cc1

# Further lines, the compound ahead of its results:
row,SMILES,logD
1,CCCOC(=O)c1ccc(S(N)(=O)=O)cc1,1.75
2,CCOC(=O)c1ccc(S(N)(=O)=O)cc1,1.17
3,CCCCOC(=O)c1ccc(S(N)(=O)=O)cc1,2.34
4,CCCCCOC(=O)c1ccc(S(N)(=O)=O)cc1,2.71
5,CCCCc1ccc(S(N)(=O)=O)cc1,2.45
6,CCc1ccc(S(N)(=O)=O)cc1,1.31
7,CCCc1ccc(S(N)(=O)=O)cc1,1.64
